# Measured values published in patent publication US20170080198A1, “DEVICES AND METHODS FOR ENHANCING THE TOPICAL APPLICATION OF A BENEFIT AGENT” (Johnson & Johnson Consummer Inc., priority 2015, published 2017).
# Assay: In vitro skin permeation study, Franz diffusion cell, with or without ultrasound (sonophoresis)
# Type: in vitro ADME, human
# Conditions: for UT60°/Non-UTGel 1 (permeation enhancement factor): Study 2, Gel 1 with 60° sonophoresis vs Gel 1 passive; for UT15°/Non-UTGel 1 (permeation enhancement factor) / UT90°/Non-UTGel 1 (permeation enhancement factor): Study 3; for UT15°/Non-UTGel 1 (permeation enhancement factor): Gel 1 with 15° sonophoresis vs Gel 1 passive; for UT90°/Non-UTGel 1 (permeation enhancement factor): Gel 1 with 90° sonophoresis vs Gel 1 passive
# From the text: The experimental setup to run sonophoresis (ultrasound) studies with Franz cell diffusion cells consisted of a custom-built universal generator capable of driving ultrasonic transducers in the 20 kHz-2 MHz range with electronic power up to 60 W (Voltage+/−30V, Current: 2A, duty cycle 50%) with a square waveform. The real power delivered to the transducer depended on the specific experimental conditions and is specified for each experiment. The driving waveform was delivered to the transducer through a coaxial cable having a BNC connector at one end and a custom non-coaxial connector at the transducer end.
# The tranducer was piezoelectric and had either a disk shaped form (either 20 or 25 mm in diameter) or a rectangular shape 10×20 mm^2). The thickness of the transducer depended on its fundamantal frequency being inversely proportional with it. In order to prevent the liquid or the gel from perturbing the electrical connection, each transducer was encapsulated in a plastic case leaving only one side of the transducer exposed to the topical composition. The case was made out of a rigid plastic and the transducers were sealed with silicone adhesive to enable them to oscilalte more or less freely. The case also enabled the electrical connections to be isolated from the topical composition.
# For sonophoresis experiments where the ultrasonic wave energy was delivered perpendicular to the skin, disk-shaped transducers were used in the encapsulation setup described above. For the angled ultrasound application the case encapsulating the ultrasonic transducer was assembled in a hinged configuration, enabling angles between 15 and 90 degrees (perpendicular). Note: an angle of 0 degrees would send the ultrasonic wave parallel with the skin surface.
# In vitro skin permeation studies on 5% Ibuprofen gel compositions without ultrasound (passive diffusion), or facilitated by the application of ultrasound (sonophoresis), through human cadaver skin were performed as follows:
# A skin penetration study evaluated the penetration of ibuprofen through the human skin for the inventive sample prepared as disclosed in Example 1. A commercial ibuprofen gel product, IBULEVE Ibuprofen Gel (by DDD ltd, Watford, Herts, WD18 7JJ, UK) was used as a benchmark, which contains 5% W/W ibuprofen, also IMS (Industrial Methylated Spirits), carbomer, propylene glycol, diethylamine and purified water according to the product label on its package. A well-known Franz diffusion cell method (taught in US20020006418 A1 which is hereby incorporated by reference) was used. […] A magnetic stirrer bar was added in the […]. The liquid receptor was filled with Phosphate-buffered saline (PBS) solution. Air bubbles in the […] were removed. The system was thermostated at 37° C. above a magnetic stirrer to ensure the homogeneity of the liquid receptor during the experiment. A human cadaver skin sample from a commercial tissue bank (Ohio Valley Tissue and Skin Center, Cincinnati, Ohio, dermatomed to approximately 0.4 mm) was cut to fit the glass diffusion cell and the skin was mounted on the Franz cell.
# For the diffusion cells designated to be tested for passive diffusion, a test gel sample of 0.2 ml was applied on the skin surface. For the diffusion cells designated to test for sonophoresis, additional test sample (2-5 ml) was added in order to assure the entire, or at least a large portion, of the ultrasonic transducer tip was immersed by the test gel during the ultrasound treatment. The excess gel was promptly removed from the donor cell after the ultrasound treatment so that the remaining test gel was approximately 0.2 ml.
# Ultrasound treatments were carried out with the following test conditions: • a) Conventional ultrasound treatment with 90 degree angle (°) between the ultrasound direction and the skin surface; • b) Angled Ultrasound treatment with less than 90 degree angle between the ultrasound direction and the skin surface. […]
smiles,measurement,setting,value
CC(C)Cc1ccc(C(C)C(=O)O)cc1 (stereo not drawn) [ibuprofen],UT60°/Non-UTGel 1 (permeation enhancement factor),6 hr,approximately 2.9 fold
same,UT60°/Non-UTGel 1 (permeation enhancement factor),24 hr,~2.0 fold
same,UT15°/Non-UTGel 1 (permeation enhancement factor),6 hr,approximately 3.0 fold
same,UT15°/Non-UTGel 1 (permeation enhancement factor),24 hr,approximately 3.0 fold
same,UT90°/Non-UTGel 1 (permeation enhancement factor),6 hr,approximately 2.3 fold
same,UT90°/Non-UTGel 1 (permeation enhancement factor),24 hr,~2.0 fold
